Tests used:
mice [1] = assay: Water maze test (MT-01 vs FOS and L-theanine); format: in vivo; settings: for Error count during testing phase: MT-01 both, control 4.11
Protocol: Furthermore, to test the hypothesis that administration of M. officinalis FOS and L-theanine in a ratio of about 2:1 L-theanine:FOS synergistically enhance mice memory, we have performed a step-down passive avoidance test and a water maze test. This was employed to assess the effect of M. officinalis FOS and L-theanine individually on mice memory compared to their collective effect when administrated in combination in a ratio of about 2:1 L-theanine:FOS (MT-01) (FIG. 1). Maze test was performed to further confirm the hypothesis. […] We analysed the synergy between FOS and L-theanine in the formulation by calculating the coefficient of drug interaction (CDI), as shown in Table 1.

KumMing (KM) mice = assay: Passive avoidance test (embodiment 1); format: in vivo, mouse
Description: The Passive Avoidance Test (Solomon and Wynne, 1954; Solomon and Turner, 1960) is a fear-aggravated task employed to evaluate learning and memory in rodent models. In this test, subjects learn to avoid an environment in which an aversive stimulus (such as a foot-shock) was previously delivered. The test chamber is divided into a light compartment and a dark compartment, with a gate between the two. Animals are allowed to explore both compartments on the first day. On the following day, they are given a mild foot shock in one of the compartments. Animals will learn to associate certain properties of the chamber with the foot shock. In order to test their learning and memory, the mice are then placed back in the compartment where no shock was delivered. Mice with normal learning and memory will avoid entering the chamber where they had previously been exposed to the shock. This is measured by recording the latency to cross through the gate between the compartments. “Learning” is the period where mice were trained in this test (Table 1 and 2). Mice were tested at 24 or 48 hours after learning and the results were recorded (“Test column” in Table 1 and 2). “Fade” indicates re-testing of mice 5 days after learning (“Fade column” Table 1 and 2). Error percentage indicates the percentage of mice that have been shocked during the test. Our research was undertaken with KumMing (KM) mice (Dai et al. 2012; Ma et al. 2013). In each test, 48 KM mice were separated into 4 groups, 12 mice per group. A negative-control group was also included in the test and mock treated. […] We subsequently, tested different doses of embodiment 1, 0.1, 0.2 or 0.3 g/kg of mouse body weight (bw) of embodiment 1, consisting of a combination of fructooligoscharide and L-theanine, in the passive avoidance test.

mice [2] = assay: Step-down passive avoidance test (MT-01 vs FOS and L-theanine); format: in vivo; settings: for Error count during testing phase: MT-01 both, control 2.33; for latency during the retention phase (FIG. 1c): comparison between groups
Description: Furthermore, to test the hypothesis that administration of M. officinalis FOS and L-theanine in a ratio of about 2:1 L-theanine:FOS synergistically enhance mice memory, we have performed a step-down passive avoidance test and a water maze test. This was employed to assess the effect of M. officinalis FOS and L-theanine individually on mice memory compared to their collective effect when administrated in combination in a ratio of about 2:1 L-theanine:FOS (MT-01) (FIG. 1).
We analysed the synergy between FOS and L-theanine in the formulation by calculating the coefficient of drug interaction (CDI), as shown in Table 1.

[3] = Low dose: L-theanine 66, FOS 33 mg/kg·bw
[4] = Medium dose: L-theanine 134, FOS 66 mg/kg·bw
[5] = doses g/kg·bw: Embodiment 1 0.01, L-Theanine 0.0067, Fructooligosaccharide 0.0033, 24 or 48 hours after learning
[6] = doses g/kg·bw: Embodiment 1 0.01, L-Theanine 0.0067, Fructooligosaccharide 0.0033, 5 days after learning
[7] = doses g/kg·bw: Embodiment 1 0.01, L-Theanine 0.0067, Fructooligosaccharide 0.0033, training period

CCNC(=O)CC[C@H](N)C(=O)O [L-theanine]
Error count during testing phase (mice [1]; High dose: L-theanine 200, FOS 100 mg/kg·bw): 2.41 | Error count during testing phase (mice [1]; [3]): 2.45 | Error count during testing phase (mice [1]; [4]): 2.95 | time to escape during the test (FIG. 1a) (mice [1]; all doses, compared to control group, p<0.05): significantly (p<0.05) less time to escape | escape time during test (mice [1]; medium and high dose, between MT-01, L-theanine and FOS): no significant differences | impact on rodent memory in the mouse passive avoidance test (KumMing (KM) mice; Table 1 doses, vs control): neither fructooligoscharide nor L-theanine alone have a positive impact on rodent memory | Test Error Count (KumMing (KM) mice; [5]): 1.22 ± 1.14 | Test Incubation period (KumMing (KM) mice; [5]): 232.13 ± 70.71 s | Fade Error Count (KumMing (KM) mice; [6]): 1.40 ± 1.07 | Fade Incubation period (KumMing (KM) mice; [6]): 267.80 ± 51.03 s | Learning Error Count (KumMing (KM) mice; [7]): 3.90 ± 1.52 | Learning Incubation period (KumMing (KM) mice; [7]): 48.30 ± 10.71 s | Error count during testing phase (mice [2]; [3]): 0.83 | Error count during testing phase (mice [2]; [4]): 1.00 | latency during the retention phase (FIG. 1c) (mice [2]; high dose): higher latency | latency during the retention phase (FIG. 1c) (mice [2]; low dose): neither the FOS-only nor L-theanine-only group show any significant difference

From patent US12636298B2, “Composition with L-theanine and fructooligosaccharides for human memory enhancement” (HARKE Pharma GmbH, priority 2019, dated 2026)
